Calls of active or inactive are those of the source. Cut-off not given; nearly all actives show IC50 up to about 10 µM.
target: yeast expressing human caspase-1/ASC, counter-screen read-out; experiment: CASP1-PYCARD signal inhibition in yeast, concentration-response, counterassay for NLRP3 inhibitor project (AID 488800)

SMILES	IC50
O=C(Nc1cccc(Cl)c1)c1cc(N=Nc2ccc([N+](=O)[O-])cc2Cl)ccc1O	0.566 µM
N#Cc1ccc(NC(=O)Nc2ccc(Cl)cc2)cc1	2.98 µM
COc1c(OC(C)=O)c(=O)n2c3ccccc3c3ccnc1c32	0.665 µM
Cc1cccc(C(=O)O/N=C(\N)Cc2cccc3ccccc23)c1	1.72 µM
Nc1ccc(Oc2cc(N)cc(Oc3ccccc3)c2)cc1	4.58 µM
CCN1/C(=C/C=C/c2oc3ccc(-c4ccccc4)cc3[n+]2CC)Oc2ccc(-c3ccccc3)cc21	8.93 µM
O=c1c2cc(Br)ccc2nc(-c2ccc([N+](=O)[O-])cc2)n1O	2.39 µM
COc1cccc(NC(=O)c2ccccc2)c1	4.54 µM
CCOC(=O)c1ccc2c(c1)nc(COc1ccc(OC)cc1)n2CC	9.83 µM
c1ccc(Sc2cccc3ccccc23)c(CNC2=NCCN2)c1	7.62 µM
Cc1onc(-c2ccccc2Cl)c1C(=O)N1C=CC(C(F)(F)F)=NCC1	6.51 µM
C[C@@H]1C[C@@H]2O[C@H]2/C=C\C=C\C(=O)Cc2c(Cl)c(O)cc(O)c2C(=O)O1	5.66 µM
O=C(NC(=S)NNC(=O)c1ccccc1O)c1ccc(F)cc1	1.82 µM
O=C(Nc1cccc(Br)c1)c1cc2ccccc2o1	3.37 µM
Oc1c(/C=N/c2ccccn2)sc2ccccc12	3.8 µM
Brc1ccc(-n2cnc(-c3ccccc3)c2)cc1	10.1 µM
Cn1c(=O)c(C(=O)Nc2ncccn2)c(O)c2ccccc21	3.18 µM
CC(=O)Oc1c(I)cc(I)cc1C(=O)Nc1ccc(Cl)cc1	0.813 µM
CC(=O)N(/N=C1\Sc2ccccc2C1=O)c1ccccc1C	4.55 µM
Cc1csc2nc(O)c(C(=O)NCCC3=CCCCC3)c(=O)n12	2.33 µM
O=c1c2cc(Cl)ccc2nc(-c2ccc([N+](=O)[O-])cc2)n1O	2.7 µM
CCCCCC(=O)N1CCN(CCN=CC2=C(O)CC(c3ccco3)CC2=O)CC1 (stereo not drawn)	8.62 µM
C=CCc1c(C)nc(C)nc1N/N=C/c1ccccc1O	9.37 µM
CCC1Nc2ncnc(N3CCN(c4ccccn4)CC3)c2N(Cc2ccc(Cl)cc2)C1=O (stereo not drawn)	3.32 µM
CCCC1CCC(c2ccc(OCC)cc2)=CC1=O (stereo not drawn)	4.85 µM
O=C(Nc1ccc(Cl)cc1)Nc1ccc(Cl)c(Cl)c1	0.805 µM
O=C(Nc1scc(-c2ccccc2)c1C(=O)O)c1ccc(F)cc1	4.03 µM

SMILES	IC50
COc1ccc(CNC(=O)c2c(C)oc3c2C(=O)c2ccccc2C3=O)cc1	3.11 µM
O=C(CCS(=O)(=O)c1ccccc1)N(CCCN1CCOCC1)c1nc2c(F)cccc2s1	1.05 µM
CCCOc1ccc(C(=O)NNC(=S)NC(=O)c2cccs2)cc1	2.93 µM
COc1ccc(NC(=O)C#Cc2ccccc2)cc1	1.44 µM
CCSc1nsc(NC(=O)Nc2cccc(F)c2)n1	1.22 µM
CCOC(=O)N1C(=O)C2(CCCCC2)N(c2ccccc2Cl)C1=S	10.6 µM
CN(CC(=O)N1CCc2ccccc2C1)c1ccccc1	2.22 µM
O=C(NNC(=S)NC(=O)c1ccc(Br)cc1)c1ccc([N+](=O)[O-])cc1	> 100 µM (inactive)
c1ccc(C2Nc3ccccc3C3OCCCC23)cc1 (stereo not drawn)	0.881 µM
Cn1c(=O)c(C(=O)NNC(=O)c2ccccc2F)c(O)c2ccccc21	1.56 µM
COc1cc(CNCCc2ccccc2)ccc1OCc1ccc(Cl)nc1	4.86 µM
CCN(CC)c1ccc2nc3ccccc3[n+](CC)c2c1	6.23 µM
CC(C)NC(=O)c1c(O)c2ccccc2[nH]c1=O	1.19 µM
CCC1Nc2ncnc(N3CCN(c4ccccn4)CC3)c2N(Cc2ccc(Br)cc2)C1=O (stereo not drawn)	3.3 µM
CCCCCCCCCn1c2c(c(=N)c3c1CCC3)CCC2	6.26 µM
O=C(Nc1cccc(Cl)c1)c1cnn2cccnc12	4.35 µM
O=C(NCCCc1ccccc1)c1c(O)nc2sccn2c1=O	2.42 µM
CCCCCNC(=O)C(=O)C1C(=O)Nc2ccccc21 (stereo not drawn)	1.78 µM
O=C(NCCC1=CCCCC1)c1c(O)nc2sccn2c1=O	2.24 µM
CN(CCOc1ccccc1)c1ccc(S(=O)(=O)N2CCCCC2)cn1	5.1 µM
CCCCCCCCn1c2c(c(=N)c3ccccc31)CCC2	8.75 µM
Cc1ccc(NC(=O)c2nc(S(=O)(=O)Cc3ccccc3)ncc2Cl)cc1	1.67 µM
O=c1c2ccc(Cl)cc2nc(-c2cccc(C(F)(F)F)c2)n1O	2.67 µM
CCN(CC)c1ccc2nc3ccc(N)cc3[n+](-c3ccccc3)c2c1	1.08 µM
CC(N)C(=O)OC(C)(C)Cc1ccc(Cl)cc1 (stereo not drawn)	4.3 µM
O=c1cc(-c2ccccc2Cl)oc2ccc([N+](=O)[O-])c(O)c12	1.89 µM
